Article PMC7351026, “Serum Half-Lives for Short- and Long-Chain Perfluoroalkyl Acids after Ceasing Exposure from Drinking Water Contaminated by Firefighting Foam” (Environmental Health Perspectives, 2020)
Marks after values point to notes of the source that are not given here.

Legend:
[1] = Population average serum elimination rate and half-life (linear mixed model, one compartment, first-order)
Procedure: (§1) Serum PFAS concentrations were log-transformed. Time was calculated as the elapsed days between supply of clean bottled water and […] blood sampling. We assumed one compartment, first-order elimination kinetics. In this kinetic model, the body is considered as one homogeneous volume in which mixing is instantaneous and from which PFAS could be absorbed, transferred, and eliminated according to the rate of elimination that is proportional to the concentration of PFAS in the body. Two methods were used to estimate serum elimination rate constant (k) and half-life for each PFAS:
Briefly, in the linear mixed model In Cij=αi+tijβ+Xiβ′+εij, Cij is the serum concentration of PFAS for individual i at sampling round j; αi is the subject-specific intercept (random intercept); tij is the time; β is the average slope; Xi is a vector of fixed covariates for individual i; β′ stands for the fixed effect coefficients; and εij is the random error term. We modified the model by excluding the subject-specific slope (random slope) due to a failure to converge after inclusion, which may be due to the limited number of study subjects. The negative value of the average slope ( −β ) is the population average k, and average half-life is calculated as ln2/k .
In the linear mixed model, we included only age and sex as covariates. We based covariate selection on factors that could conceivably confound the PFAS half-life estimation. Working task, duration of employment, number of glasses of water per day, blood donation, and pregnancy before mitigation of PFAS exposure from drinking water can influence the initial serum levels but would not be expected to influence the PFAS half-life.
A sensitivity analysis was performed using the same linear mixed model but with Cij as the serum levels after subtracting general background levels (using the median levels obtained from the nonexposed reference population). If the serum PFAS levels after subtraction were lower than the half of the background levels, they were replaced with half of the background levels.

[2] = Individual serum elimination rate and half-life (linear regression per employee); conditions: for Elimination rate / HL (half-life): individual estimate;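 as to HL (half-life): half-life in years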
Procedure: as §1
Method 2: For estimation of individual k, linear regression was used to derive the slope ( β ) of the logarithm of serum concentrations vs. time for each employee. The negative value of the slope ( −β ) for each individual was equivalent to the individual k, and individual serum elimination half-life was calculated as ln2/k for each PFAS. If β was positive (i.e., PFAS concentrations tended to increase over the five samplings), the half-life was not calculated.

Serum/water ratio = type: in vivo, human; conditions: median serum level of first samples (26 employees) divided by airport drinking-water level
Procedure: The ratio of serum and water concentration for each PFAS (serum/water ratio) was calculated based on median serum level in the first serum sample obtained from all 26 airport employees divided by the drinking-water concentration. This ratio is an indicator of PFAS accumulation in body.

[3] = cited from earlier work
[4] = population average, model with original serum levels, age and sex as covariates
[5] = population average, model with serum levels after subtraction of background exposure (sensitivity analysis)

Structure (SMILES): O=S(=O)(O)C(F)(F)C(F)(F)C(F)(F)C(F)(F)F [PFBS, perfluorobutane sulfonic acid]
- Constant elimination rate (95% CI) [1, 4]: 5.96 (4.65, 7.27) yearly
- Half-life (95% CI) [1, 4]: 0.12 (0.1, 0.15)^d year
- Elimination rate ([2]; subject 1, 5 samples): 3.2 yearly
- HL (half-life) ([2]; subject 1, 5 samples): 0.2 year
- Elimination rate ([2]; subject 2, 5 samples): 4.0 yearly
- HL (half-life) ([2]; subject 2, 5 samples): 0.2 year
- Elimination rate ([2]; subject 3, 5 samples): 5.1 yearly
- HL (half-life) ([2]; subject 3, 5 samples): 0.1 year
- Elimination rate ([2]; subject 4, 5 samples): 3.1 yearly
- HL (half-life) ([2]; subject 4, 5 samples): 0.2 year
- Elimination rate ([2]; subject 5, 5 samples): 3.0 yearly
- HL (half-life) ([2]; subject 5, 5 samples): 0.2 year
- Elimination rate ([2]; subject 6, 4 samples): 2.9 yearly
- HL (half-life) ([2]; subject 6, 4 samples): 0.2 year
- Elimination rate ([2]; subject 7, 5 samples): 6.2 yearly
- HL (half-life) ([2]; subject 7, 5 samples): 0.1 year
- Elimination rate ([2]; subject 8, 5 samples): 4.4 yearly
- HL (half-life) ([2]; subject 8, 5 samples): 0.2 year
- Elimination rate ([2]; subject 9, 5 samples): 11.7 yearly
- HL (half-life) ([2]; subject 9, 5 samples): 0.1 year
- Elimination rate ([2]; subject 10, 5 samples): 3.8 yearly
- HL (half-life) ([2]; subject 10, 5 samples): 0.2 year
- Elimination rate ([2]; subject 11, 5 samples): 7.1 yearly
- HL (half-life) ([2]; subject 11, 5 samples): 0.1 year
- Elimination rate ([2]; subject 12, 5 samples): 5.4 yearly
- HL (half-life) ([2]; subject 12, 5 samples): 0.1 year
- Elimination rate ([2]; subject 13, 5 samples): 6.2 yearly
- HL (half-life) ([2]; subject 13, 5 samples): 0.1 year
- Elimination rate ([2]; subject 14, 4 samples): 10.7 yearly
- HL (half-life) ([2]; subject 14, 4 samples): 0.1 year
- Elimination rate ([2]; subject 15, 5 samples): 5.7 yearly
- HL (half-life) ([2]; subject 15, 5 samples): 0.1 year
- Elimination rate ([2]; subject 16, 5 samples): 3.6 yearly
- HL (half-life) ([2]; subject 16, 5 samples): 0.2 year
- Elimination rate ([2]; subject 17, 5 samples): 10.4 yearly
- HL (half-life) ([2]; subject 17, 5 samples): 0.1 year
- Serum/water ratio (Serum/water ratio): 1.65
- Half-life (geometric mean) ([3]; occupationally exposed workers followed up to 180 d, ref Olsen et al. 2009): 25.8 days

Structure (SMILES): O=S(=O)(O)C(F)(F)C(F)(F)C(F)(F)C(F)(F)C(F)(F)C(F)(F)C(F)(F)F [PFHpS, perfluoroheptane sulfonic acid]
- Average half-life longer than that of the PFCA with same number of carbon atoms ([1]; PFHpS vs PFHpA, PFOS vs PFOA): ~1.3 y
- Average serum half-life ([1]; population average, linear mixed model with original serum levels, 17 airport employees after end of drinking-water exposure): 1.46 y
- Constant elimination rate (95% CI) [1, 4]: 0.48 (0.11, 0.84) yearly
- Half-life (95% CI) [1, 4]: 1.46 (0.83, 6.25) year
- Constant elimination rate (95% CI) [1, 5]: 0.51 (0.12, 0.9) yearly
- Half-life (95% CI) [1, 5]: 1.35 (0.77, 5.71) year
- Reduction of half-life estimation after subtraction of background levels ([1]; sensitivity analysis vs model with original serum levels): 8%
- Elimination rate ([2]; subject 1, 5 samples): 0.5 yearly
- HL (half-life) ([2]; subject 1, 5 samples): 1.3 year
- Elimination rate ([2]; subject 2, 5 samples): 0.2 yearly
- HL (half-life) ([2]; subject 2, 5 samples): 3.4 year
- Elimination rate ([2]; subject 3, 5 samples): 0.2 yearly
- HL (half-life) ([2]; subject 3, 5 samples): 3.0 year
- Elimination rate ([2]; subject 4, 5 samples): 0.001 yearly
- Elimination rate ([2]; subject 5, 5 samples): −0.3 yearly
- Elimination rate ([2]; subject 6, 4 samples): 0.1 yearly
- HL (half-life) ([2]; subject 6, 4 samples): 6.1 year
- Elimination rate ([2]; subject 7, 5 samples): −0.04 yearly
- Elimination rate ([2]; subject 8, 5 samples): −0.6 yearly
- Elimination rate ([2]; subject 9, 5 samples): 0.05 yearly
- HL (half-life) ([2]; subject 9, 5 samples): 15 year
- Elimination rate ([2]; subject 10, 5 samples): 0.4 yearly
- HL (half-life) ([2]; subject 10, 5 samples): 1.8 year
- Elimination rate ([2]; subject 11, 5 samples): 1.7 yearly
- HL (half-life) ([2]; subject 11, 5 samples): 0.4 year
- Elimination rate ([2]; subject 12, 5 samples): 0.6 yearly
- HL (half-life) ([2]; subject 12, 5 samples): 1.1 year
- Elimination rate ([2]; subject 13, 5 samples): −0.2 yearly
- Elimination rate ([2]; subject 14, 4 samples): 1.0 yearly
- HL (half-life) ([2]; subject 14, 4 samples): 0.7 year
- Elimination rate ([2]; subject 15, 5 samples): 1.6 yearly
- HL (half-life) ([2]; subject 15, 5 samples): 0.4 year
- Elimination rate ([2]; subject 16, 5 samples): 0.1 yearly
- HL (half-life) ([2]; subject 16, 5 samples): 12 year
- Elimination rate ([2]; subject 17, 5 samples): 1.7 yearly
- HL (half-life) ([2]; subject 17, 5 samples): 0.4 year
- Serum/water ratio (Serum/water ratio): 81.3
- Average half-life ([3]; highly exposed general population from Ronneby, Sweden, 108 Swedes, 5 y follow-up, ref Li et al. 2019): 4.7 y

Structure (SMILES): O=C(O)C(F)(F)C(F)(F)C(F)(F)C(F)(F)C(F)(F)F [PFHxA, perfluorohexanoic acid]
- Half-life (95% CI) [1, 4]: 1.63 (NA) year
- Individuals without decrement in serum concentration (no individual estimated half-life) ([2]; 5-month follow-up, 17 employees): 53%
- Elimination rate ([2]; subject 1, 5 samples): 0.2 yearly
- HL (half-life) ([2]; subject 1, 5 samples): 4.1 year
- Elimination rate ([2]; subject 2, 5 samples): −0.1 yearly
- Elimination rate ([2]; subject 3, 5 samples): 1.6 yearly
- HL (half-life) ([2]; subject 3, 5 samples): 0.4 year
- Elimination rate ([2]; subject 4, 5 samples): −0.6 yearly
- Elimination rate ([2]; subject 5, 5 samples): −1.7 yearly
- Elimination rate ([2]; subject 6, 4 samples): −1.6 yearly
- Elimination rate ([2]; subject 7, 5 samples): 1.5 yearly
- HL (half-life) ([2]; subject 7, 5 samples): 0.5 year
- Elimination rate ([2]; subject 8, 5 samples): −0.7 yearly
- Elimination rate ([2]; subject 9, 5 samples): −0.2 yearly
- Elimination rate ([2]; subject 10, 5 samples): 0.4 yearly
- HL (half-life) ([2]; subject 10, 5 samples): 1.9 year
- Elimination rate ([2]; subject 11, 5 samples): 2.8 yearly
- HL (half-life) ([2]; subject 11, 5 samples): 0.2 year
- Elimination rate ([2]; subject 12, 5 samples): −0.3 yearly
- Elimination rate ([2]; subject 13, 5 samples): −0.7 yearly
- Elimination rate ([2]; subject 14, 4 samples): −0.5 yearly
- Elimination rate ([2]; subject 15, 5 samples): 2.7 yearly
- HL (half-life) ([2]; subject 15, 5 samples): 0.3 year
- Elimination rate ([2]; subject 16, 5 samples): 1.1 yearly
- HL (half-life) ([2]; subject 16, 5 samples): 0.6 year
- Elimination rate ([2]; subject 17, 5 samples): 2.5 yearly
- HL (half-life) ([2]; subject 17, 5 samples): 0.3 year
- Serum/water ratio (Serum/water ratio): 1.15
- Apparent elimination half-life ([3]; whole blood, seven ski wax technicians, ref Russell et al. 2013): 32 days
